Reference: ChEMBL document CHEMBL1201862, “PubChem BioAssay data set” (2004)
“And” between values parts separate entries of the source, which are not always exact repeats. Equal values may be shown once.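 96-well plates; 48 h exposure; 5 concentrations. Endpoints by linear interpolation between flanking doses. Not reached: highest tested concentration assigned. Abbreviation: GI50, concentration required for 50% inhibition of growth.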 The source made the active and inactive calls. No stated cut-off is given here; in the data, active = GI50 up to about 1.1 µM and inactive = higher.

Key:
Assay in all cases: NCI anticancer screen, dose series, 48 h
786-0 = test system: 786-0
A549 = test system: A549
CAKI-1 = test system: CAKI-1
CCRF-CEM = test system: CCRF-CEM
HT-29 = test system: HT-29
Hs-578T = test system: Hs-578T
K562 = test system: K562
MDA-MB-435 = test system: MDA-MB-435
MDA-N = test system: MDA-N
MOLT-4 = test system: MOLT-4
Malme-3M = test system: Malme-3M
NCI-H226 = test system: NCI-H226
NCI-H23 = test system: NCI-H23
NCI/ADR-RES = test system: NCI/ADR-RES
OVCAR-4 = test system: OVCAR-4
RPMI-8226 = test system: RPMI-8226
SK-MEL-28 = test system: SK-MEL-28
SK-MEL-2 = test system: SK-MEL-2
U-251 = test system: U-251
HCC 2998 = test system: HCC 2998

SMILES | GI50 (786-0) | GI50 (A549) | GI50 (CAKI-1) | GI50 (CCRF-CEM) | GI50 (HT-29) | GI50 (Hs-578T) | GI50 (K562) | GI50 (MDA-MB-435) | GI50 (MDA-N) | GI50 (MOLT-4) | GI50 (Malme-3M) | GI50 (NCI-H226) | GI50 (NCI-H23) | GI50 (NCI/ADR-RES) | GI50 (OVCAR-4) | GI50 (RPMI-8226) | GI50 (SK-MEL-28) | GI50 (SK-MEL-2) | GI50 (U-251) | GI50 (HCC 2998)
COc1ccc2c(Cl)cc(NC(=S)Nc3ccccc3)nc2c1 | 22.3 µM (inactive) | 29.5 µM (inactive) | 35.6 µM (inactive) | < 0.01 µM (active) | 22.4 µM (inactive) | 14.4 µM (inactive) | 23.4 µM (inactive) | 17.7 µM (inactive) | 15.4 µM (inactive) | 25.2 µM (inactive) | 15.2 µM (inactive) | 55.5 µM (inactive) | 23.4 µM (inactive) | 22.3 µM (inactive) | 32.4 µM (inactive) | 21.2 µM (inactive) | 33.6 µM (inactive) | 22.4 µM (inactive) | 20 µM (inactive) | –
CC(NC(=O)c1ccccc1)(C(=O)O)C(=O)O | > 100 µM (inactive) | > 100 µM (inactive) | > 100 µM (inactive) | > 100 µM (inactive) | > 100 µM (inactive) | > 100 µM (inactive) | > 100 µM (inactive) | > 100 µM (inactive) | > 100 µM (inactive) | > 100 µM (inactive) | > 100 µM (inactive) | > 100 µM (inactive) | > 100 µM (inactive) | > 100 µM (inactive) | > 100 µM (inactive) | > 100 µM (inactive) | > 100 µM (inactive) | > 100 µM (inactive) | > 100 µM (inactive) | –
N=C(N)N/N=C/c1c(-c2cc([N+](=O)[O-])c(Cl)cc2Cl)nc2sccn12 | 1.67 µM (inactive) | 1.82 µM (inactive) and 1.51 µM (inactive) | 6.27 µM (inactive) | 0.714 µM (active) | – | 1.54 µM (inactive) and 1.53 µM (inactive) | 242 nM (active) and 746 nM (active) | 332 nM (active) and 1.7 µM (inactive) | 1.48 µM (inactive) | 0.124 µM (active) | 1.67 µM (inactive) and 239 nM (active) | 2.04 µM (inactive) | 1.56 µM (inactive) and 1.36 µM (inactive) | > 100 µM (inactive) | 1.66 µM (inactive) | 1.27 µM (inactive) and 1.75 µM (inactive) | 1.38 µM (inactive) and 1.47 µM (inactive) | 1.91 µM (inactive) and 1 µM (active) | 1.05 µM (active) and 272 nM (active) | –
O=[N+]([O-])c1cc([N+](=O)[O-])c(Nn2c3ccccc3c3ccccc32)c([N+](=O)[O-])c1 | 2.74 µM (inactive) | 2.82 µM (inactive) | – | 2.16 µM (inactive) | 0.857 µM (active) | 2.46 µM (inactive) | 1.14 µM (inactive) | 1.56 µM (inactive) | 2.38 µM (inactive) | 0.69 µM (active) | 1.42 µM (inactive) | 1.4 µM (inactive) | 1.43 µM (inactive) | 3.24 µM (inactive) | 2.12 µM (inactive) | 0.65 µM (active) | 3.3 µM (inactive) | – | 1.82 µM (inactive) | 2.74 µM (inactive)
Cc1ccc(Cl)c2[nH]c(-c3ccccc3)cc(=O)c12 | 90.4 µM (inactive) | 24.1 µM (inactive) | – | 38.5 µM (inactive) | 43.5 µM (inactive) | 59.2 µM (inactive) | 30.1 µM (inactive) | 21.1 µM (inactive) | 22.3 µM (inactive) | 21.6 µM (inactive) | > 100 µM (inactive) | 31.3 µM (inactive) | 46.7 µM (inactive) | 57.4 µM (inactive) | 37.8 µM (inactive) | 36.1 µM (inactive) | 39.7 µM (inactive) | 65.6 µM (inactive) | 77.8 µM (inactive) | 93.1 µM (inactive)
Cc1cc(=O)oc2c(CNC(C(=O)O)C(C)O)c(O)ccc12 (configuration not stated) | > 100 µM (inactive) | > 100 µM (inactive) | > 100 µM (inactive) | > 100 µM (inactive) | > 100 µM (inactive) | 77.4 µM (inactive) | > 100 µM (inactive) | > 100 µM (inactive) | > 100 µM (inactive) | > 100 µM (inactive) | 24.8 µM (inactive) | > 100 µM (inactive) | > 100 µM (inactive) | > 100 µM (inactive) | > 100 µM (inactive) | > 100 µM (inactive) | > 100 µM (inactive) | > 100 µM (inactive) | > 100 µM (inactive) | –
C[C@]1(O)O[C@@H]2OCC[C@@H]2C2=C1C(=O)c1ccccc1C2=O | 14.4 µM (inactive) | 17.9 µM (inactive) | 20.1 µM (inactive) | 15.4 µM (inactive) | 29.9 µM (inactive) | 30.3 µM (inactive) | 15.7 µM (inactive) | 6.56 µM (inactive) | 6.15 µM (inactive) | 5.04 µM (inactive) | 15.9 µM (inactive) | – | 14.7 µM (inactive) | 19.7 µM (inactive) | 12.5 µM (inactive) | 3.62 µM (inactive) | 29.4 µM (inactive) | 17.4 µM (inactive) | 15.2 µM (inactive) | 17.3 µM (inactive)
CCn1c(-c2ccc(OC)cc2)nc2c1C(=O)c1ccccc1C2=O | > 100 µM (inactive) | > 100 µM (inactive) | – | > 100 µM (inactive) | > 100 µM (inactive) | > 100 µM (inactive) | > 100 µM (inactive) | > 100 µM (inactive) | > 100 µM (inactive) | > 100 µM (inactive) | > 100 µM (inactive) | 61.1 µM (inactive) | > 100 µM (inactive) | > 100 µM (inactive) | > 100 µM (inactive) | > 100 µM (inactive) | > 100 µM (inactive) | – | > 100 µM (inactive) | > 100 µM (inactive)
CC(C)=C=CC(C)(C)NS(=O)(=O)NC(C)(C)C=C=C(C)C | > 100 µM (inactive) | 42.1 µM (inactive) | > 100 µM (inactive) | – | 75.5 µM (inactive) | > 100 µM (inactive) | 19.8 µM (inactive) | > 100 µM (inactive) | > 100 µM (inactive) | – | > 100 µM (inactive) | > 100 µM (inactive) | > 100 µM (inactive) | > 100 µM (inactive) | > 100 µM (inactive) | – | > 100 µM (inactive) | > 100 µM (inactive) | > 100 µM (inactive) | 25.5 µM (inactive)
CCn1c(=O)c2c3ccc(O)cc3oc2c2ccc(O)cc21 | 63.4 µM (inactive) | 41.1 µM (inactive) | 39.4 µM (inactive) | 28.2 µM (inactive) | 48.1 µM (inactive) | 14.6 µM (inactive) | 40.6 µM (inactive) | 33.7 µM (inactive) | 37.5 µM (inactive) | 25.5 µM (inactive) | 41.7 µM (inactive) | 42.7 µM (inactive) | 37.4 µM (inactive) | 53.3 µM (inactive) | 62.4 µM (inactive) | – | 49.1 µM (inactive) | – | 32.2 µM (inactive) | 47 µM (inactive)
COC(=O)CCC(=O)c1ccc2c(c1)CC1(Cc3ccccc3C1)C2 | 94.6 µM (inactive) | 54.7 µM (inactive) | – | 16.4 µM (inactive) | 20.1 µM (inactive) | > 100 µM (inactive) | 0.218 µM (active) | 64 µM (inactive) | 49.1 µM (inactive) | 17.7 µM (inactive) | 80.5 µM (inactive) | 24.7 µM (inactive) | 40.1 µM (inactive) | 64 µM (inactive) | 32.1 µM (inactive) | 31.7 µM (inactive) | – | 34.7 µM (inactive) | 58.7 µM (inactive) | 55.8 µM (inactive)
